The record followed here is ChEMBL document CHEMBL3085710, “Pahangensin A and B, two new antibacterial diterpenes from the rhizomes of Alpinia pahangensis Ridley” (2013).

Assay [1] deals with Salmonella typhimurium. In words: Antibacterial activity against Salmonella typhimurium (Loeffler) Castellani and Chalmers ATCC 14028 after overnight incubation by broth microdilution method. The class given is functional, Salmonella enterica subsp. enterica serovar Typhimurium. The conditions noted are these: Salmonella enterica. (In general: Dilution methods test growth across graded concentrations, often in twofold steps.)

The test system of assay [2] is Salmonella sp. In words: Antibacterial activity against Salmonella sp. ATCC 700623 after overnight incubation by broth microdilution method. The class given is functional.
The test system of assay [3] is Escherichia coli. In words: Antibacterial activity against Escherichia coli (Migula) Castellani and Chalmers ATCC 25922 after overnight incubation by broth microdilution method. It is filed as functional.
The test system of assay [4] is Bacillus subtilis. Description: Antibacterial activity against Bacillus subtilis (Ehrenberg) Cohn ATCC 6051 after overnight incubation by broth microdilution method. The class given is functional.
Assay [5] relates to Staphylococcus aureus. Description: Antibacterial activity against Staphylococcus aureus Rosenbach ATCC 9144 after overnight incubation by broth microdilution method. The class given is functional.
Assay [6] relates to Bacillus cereus. Description: Antibacterial activity against Bacillus cereus Frankland and Frankland ATCC 11778 after overnight incubation by broth microdilution method. The class given is functional.

One may read the MIC as the smallest concentration in the dilution series that meets the test's criterion for growth inhibition. Low values mean inhibition by little substance, high ones a need for much substance.

SMILES strings stand for the structures. Values after ≈ are worked out from the molar mass of the structure shown.

Take `CN[C@@H]1[C@H](O[C@H]2[C@H](O[C@H]3[C@H](O)[C@@H](O)[C@H](N=C(N)N)[C@@H](O)[C@@H]3N=C(N)N)O[C@@H](C)[C@]2(O)C=O)O[C@@H](CO)[C@H](O)[C@H]1O` [STREPTOMYCIN]: the MIC in assay [1] was found to be 62.5 µg/mL (≈ 107 µM); in assay [2], 15.6 µg/mL (≈ 26.9 µM); in assay [3] it was 15.6 µg/mL (≈ 26.9 µM); in assay [4] it was 31.2 µg/mL (≈ 53.7 µM); in assay [5], 31.2 µg/mL (≈ 53.7 µM); in assay [6], 15.6 µg/mL (≈ 26.9 µM).
As for `CC1(C)S[C@@H]2[C@H](NC(=O)Cc3ccccc3)C(=O)N2[C@H]1C(=O)O` [PENICILLIN G], the MIC in assay [1] was determined as 125 µg/mL (≈ 374 µM); in assay [2], 31.2 µg/mL (≈ 93.5 µM); in assay [3], 125 µg/mL (≈ 374 µM); in assay [4] it was 15.6 µg/mL (≈ 46.7 µM); in assay [5], 3.91 µg/mL (≈ 11.7 µM); in assay [6], 62.5 µg/mL (≈ 187 µM).
`C=C1CC[C@H]2C(C)(C)CCC[C@]2(C)[C@H]1C/C=C(/C=O)CC(=O)OC` returned an MIC in assay [6] of 52.1 µg/mL (≈ 157 µM).
As for `C=C1CC[C@H]2C(C)(C)CCC[C@]2(C)[C@H]1/C=C/C1=C(C2=C(/C=C/[C@H]3C(=C)CC[C@H]4C(C)(C)CCC[C@]34C)COC2=O)C(=O)OC1`, the MIC worked out at 31.2 µg/mL (≈ 52.2 µM) in assay [4], 52.1 µg/mL (≈ 87 µM) in assay [5] and 31.2 µg/mL (≈ 52.2 µM) in assay [6].
For the compound `O=C(N[C@H](CO)[C@H](O)c1ccc([N+](=O)[O-])cc1)C(Cl)Cl` [CHLORAMPHENICOL], the minimal inhibitory concentration (MIC) in assay [1] came to 15.6 µg/mL (≈ 48.3 µM); in assay [2], 15.6 µg/mL (≈ 48.4 µM); in assay [3] it was 7.81 µg/mL (≈ 24.2 µM); in assay [4] it was 15.6 µg/mL (≈ 48.4 µM); in assay [5] it was 31.2 µg/mL (≈ 96.7 µM); in assay [6], 15.6 µg/mL (≈ 48.4 µM).
